Experimental data: US7129218B2, “Use of rhamnolipids in wound healing, treatment and prevention of gum disease and periodontal regeneration” (Paradigm Biomedical, Inc., priority 1999, dated 2006)
Where a name gives a salt, the structure may show the parent alone.

Key:
[1] = system: burn wounds; test: Burn wounds, 7% body surface, topical treatment (rats); format: in vivo, Sprague-Dawley rats; settings: 1% chlorhexidine hydrochloride in combination with BAC-3 in ointment, burn wounds
Description: The wounding of animals was performed according to the Protocol for Animal Use and Care at the University of California-Davis (hereafter UC-Davis). The entire animal protocol required 70 Sprague-Dawley rats: 30 rats for incision wounds and 40 rats for burn wounds. Among them 36 rats were burned over 7% of their skin and 4 rats were burned over 15% of their skin. Incision wounds of whole skin and burn wounds were treated topically with 2 test doses of the pharmaceutical preparation of di-rhamnolipid BAC-3. […] D.E.A. Hamburg); 23.8 g Lanolinum (Producer I.O.I. Hamburg); 4.7 g Cholesterin (Producer: Solvay, Wiena, Austria); Water Number: 320); or b). 1%; 0.1% active rhamnolipid (BAC-3) with antiseptic (chlorhexidine hydrochloride-[…]). Eucerin with BAC-3 was administrated twice daily during healing. The same experiment had one control group without the treatment, and one control group which was treated with ointment+1% chlorhexidine hydrochloride. During the experiment, animal body weight and behavior was checked every third day, and photographs were taken periodically. Burn wounds. The consecutive burn wounds should ideally be identical in depth and extent. The standard method defines the size and location of the burn wound, the temperature gradient, duration of exposure and method of applying the burn. The wound surface areas tested were of two different sizes. One size to 7% of the body surface, which enables one to compare the rate of wound healing with different percentage of BAC-3 and the other size to 15% of the body surface, which is a sufficient size so that healing could not occur by contraction alone. On the other hand, the total wound surface area should not cause major systematic problems. The latter can be concluded from undisturbed weight gain of the animals. The standard animal burn was performed by techniques and device described by Walker. The burning devices were prepared using a model device ordered from U.S. Army Surgical Research Unit, Experimental Surgery, Army Medical Center, Fort Sam Houston, Tex. 78234. […] The surface of the skin was measured for every animal using Mech's formula: A=kW^2/3; A=surface area in cm^2; W=body weight in grams; k=10. Method of burning. Each animal was anesthetized with sodium pentobarbital administered i/p (5 mg/25 g). (Producer: Veterinary Laboratory Inc. Lenexa, Kans.). The hair over the dorsum was clipped with animal clippers. The animal was placed supine in the burning device and the extremities were tied; the malleable retractor was placed over the animal and secured snugly with plastic straps. The entire device was then picked up by the retractor ends with forceps and the exposed area was immersed in boiling water. Ten seconds of exposure was sufficient to produce a full-thickness burn. On removal from the water, the dorsum was quickly dried by rolling on a towel and the animal was released and individually caged. This procedure produced a uniform burn with sharp margins. On post burn days 7, 14 and 45, animals were sacrificed by overdose of sodium pentobarbital and skin specimens were taken for histopathology. Specimens included the wound bed as well as the healthy skin of the wound margins. The specimens were fixed, and two stainings were routinely performed: Hematoxylin-Eosin (H&E) for microscopic evaluation, Verhoeff's staining for a better visualization of the crust and the regenerating dermis, and the alpha smooth muscle acting to identify the myofibroblasts. Microscopic findings were interpreted by a veterinarian pathologist. During the microscopic and macroscopic observations, four wound healing parameters were evaluated: crust formation, re-epithelialization, formation of granulation tissue and inflammation. 36 rats were divided into 6 groups. Each group had six animals. After burning rats according to the above-described procedure, each rat was caged individually. […]

[2] = system: Wistar Kyoto (WKY) rats; settings: cited from earlier work
[3] = system: Wistar Kyoto (WKY) rats; settings: cited from earlier work; remark: listed apart in the source
[4] = system: mice; settings: doses that failed to produce antidepressant effects in control animals; cited from earlier work

[H]/N=C(\N/C(=N/[H])NCCCCCCNC(=N)NC(=N)Nc1ccc(Cl)cc1)Nc1ccc(Cl)cc1 [chlorhexidine hydrochloride, reference compound]
wound irritation (rats scratched the wounds) [1]: irritated wounds

CNCCCN1c2ccccc2CCc2ccccc21 [desipramine]
incidence of stress ulcer [2]: reduces | immobility in the forced swim test [3]: reduces

Cc1nc2n(c(=O)c1CCN1CCC(c3noc4cc(F)ccc34)CC1)CCCC2 [risperidone]
PCP-induced enhancement of immobility in the forced swimming test [4]: attenuated

Cc1nc2sccn2c(=O)c1CCN1CCC(=C(c2ccc(F)cc2)c2ccc(F)cc2)CC1 [ritanserin]
PCP-induced enhancement of immobility in the forced swimming test [4]: attenuated
